Laboratory results: US9814709B2, “Bruton's tyrosine kinase inhibitor” (HEFEI INSTITUTES OF PHYSICAL SCIENCE, CHINESE ACADEMY OF …, priority 2014, dated 2017)
Read-outs that look alike come from different tables or passages of the source.

Assays:
Type in all cases: cell-based
[1] = test system: mouse TEL-BMX-BaF3 cells (stably expressing TEL-BMX activated kinase); assay: Cell growth, Cell Titer-Glo; settings: TEL-BMX-BaF3, 72 hrs, read-out: Half inhibitory concentration IC50
Description: (§1) We further assessed the selectivity of Compound 1 to inhibit the proliferation of cancer cells, by testing the effect of Btk inhibitor on the growth of cancer cells. In the example, we used B-lymphoma cell Ramos, cervical cancer cells HeLa, prostate cancer cells DU145, RV-1 and C4-2, colon cancer cells HCT116, blood cancer cells K562, B-cell lymphoma cells U2932, diffuse large B-cell lymphoma cells OCI-LY10, diffuse histiocytic lymphoma cells SU-DHL-2, diffuse large B-cell lymphoma cells TMD8, human non-small cell lung cancer cells H1975 (expressing EGFR L858R/T790M double mutant gene), human lung adenocarcinoma cells A549 (expressing wild-type EGFR gene), human non-small cell lung cancer cells H460 (expressing wild-type EGFR gene), mantel cell lymphoma (MCL) cells Z-138, EB virus infected human peripheral lymphocyte cells JVM-2, MCL cells REC-1, leukemia cells AML-3, acute promyelocytic leukemia cell line NB-4(Lu+), MDS-RAEB (myelodysplastic syndrome-excessive blasts) cell line SKM-1 human leukemia cell Nomo-1, human B-cell leukemia cell line NALM6, human leukocyte leukemia cells HEL, human T-cell lymphoma cells PF-382, acute myelocytic leukemia (AML) cell line MOLM14, AML cell line MOLM13, human Burkitt's lymphoma cells Namalwa, mouse pro-B cells BaF3, all of where were purchased from ATCC. Also used were mouse TEL-EGFR-BaF3 (stably expressing TEL-EGFR activated kinase), mouse TEL-EGFR/T790-BaF3 cells (stably expressing TEL-EGFR-T790M activated mutant kinase), mouse TEL-EGFR/L858R-BaF3 cells (stably expressing TEL-EGFR-L858R activated mutant kinase), mouse TEL-EGFR/T790/L858R-BaF3 (stably expressing TEL-EGFR-T790M/L858R activated mutant kinase), mouse TEL-BMX-BaF3 cells (stably expressing TEL-BMX activated kinase), mouse TEL-JAK1-BaF3 cells (stably expressing TEL-JAK1 activated kinase), mouse TEL-JAK2-BaF3 cells (stably expressing TEL-JAK2 activated kinase), mouse TEL-JAK3-BaF3 cells (stably expressing TEL-JAK3 activated kinase), where were all established by our laboratory via the following method: the kinase domain sequences of human EGFR, BMX, JAK1, JAK2, JAK3 were amplified respectively by PCR, and these kinase were inserted into the MSCV-Puro vectors with N-terminal TEL segment (Clontech); if there was a mutation, the mutation of the corresponding site was conducted by Site-Directed Mutagenesis kit (Stratagene); the resultants were stably transfected into mouse BaF3 cells by the means of retrovirus, and the IL-3 growth factors were removed, and eventually the EGFR, BMX, JAK1, JAK2, JAK3-transferred protein dependent cell lines were obtained.
(§2) In the example, different concentrations (0.000508 μM, 0.00152 μM, 0.00457 μM, 0.0137 μM, 0.0411 μM, 0.123 μM, 0.370 μM, 1.11 μM, 3.33 μM, 10 μM) of Compound 1 and Compound 19 were added into above cells, and were incubated for 72 hrs. The number of viable cells was determined by quantitating ATP in viable cells using Cell Titer-Glo® (Promega, U.S.) chemiluminescence cell viability assay kit.

[2] = test system: mouse TEL-EGFR/L858R-BaF3 cells (stably expressing TEL-EGFR-L858R activated mutant kinase); assay: Cell growth, Cell Titer-Glo; settings: TEL-EGFR/L858R-BaF3, 72 hrs, read-out: Half inhibitory concentration IC50
Description: as §1, §2

[3] = test system: mouse TEL-EGFR/T790/L858R-BaF3 (stably expressing TEL-EGFR-T790M/L858R activated mutant kinase); assay: Cell growth, Cell Titer-Glo; settings: TEL-EGFR/T790/L858R-BaF3, 72 hrs, read-out: Half inhibitory concentration IC50
Description: as §1, §2

[4] = test system: mouse TEL-JAK1-BaF3 cells (stably expressing TEL-JAK1 activated kinase); assay: Cell growth, Cell Titer-Glo; settings: TEL-JAK1-BaF3, 72 hrs, read-out: Half inhibitory concentration IC50
Description: as §1, §2

[5] = test system: mouse TEL-JAK2-BaF3 cells (stably expressing TEL-JAK2 activated kinase); assay: Cell growth, Cell Titer-Glo; settings: TEL-JAK2-BaF3, 72 hrs, read-out: Half inhibitory concentration IC50
Description: as §1, §2

[6] = test system: mouse TEL-JAK3-BaF3 cells (stably expressing TEL-JAK3 activated kinase); assay: Cell growth, Cell Titer-Glo; settings: TEL-JAK3-BaF3, 72 hrs, read-out: Half inhibitory concentration IC50
Description: as §1, §2

mouse pro-B cells BaF3 = assay: Cell growth, Cell Titer-Glo; settings: BaF3, 72 hrs (listed twice in Table 3), read-out: Half inhibitory concentration IC50
Description: as §1, §2

[7] = test system: B-cell lymphoma cells U2932; assay: Cancer cell growth, Cell Titer-Glo; settings: Homo sapiens; U2932, 72 hrs; read-out: Half inhibitory concentration IC50
Description: as §1, §2

[8] = test system: EB virus infected human peripheral lymphocyte cells JVM-2; assay: Cancer cell growth, Cell Titer-Glo; settings: JVM-2, 72 hrs, read-out: Half inhibitory concentration IC50
Description: as §1, §2

MCL cells REC-1 = assay: Cancer cell growth, Cell Titer-Glo; settings: Homo sapiens, Rec1; REC-1, 72 hrs; read-out: Half inhibitory concentration IC50
Description: as §1, §2

MDS-RAEB cell line SKM-1 = assay: Cancer cell growth, Cell Titer-Glo; settings: Homo sapiens; SKM-1, 72 hrs; read-out: Half inhibitory concentration IC50
Description: as §1, §2

[9] = test system: acute myelocytic leukemia (AML) cell line MOLM14; assay: Cancer cell growth, Cell Titer-Glo; settings: Homo sapiens, MOLM-14; MOLM14, 72 hrs; read-out: Half inhibitory concentration IC50
Description: as §1, §2

[10] = test system: acute promyelocytic leukemia cell line NB-4(Lu+); assay: Cancer cell growth, Cell Titer-Glo; settings: 72 hrs, read-out: Half inhibitory concentration IC50
Description: as §1, §2

blood cancer cells K562 = assay: Cancer cell growth, Cell Titer-Glo; settings: Homo sapiens; K562, 72 hrs; read-out: Half inhibitory concentration IC50
Description: as §1, §2

[11] = test system: human non-small cell lung cancer cells H1975 (expressing EGFR L858R/T790M double mutant gene); assay: Cancer cell growth, Cell Titer-Glo; settings: NCI-H1975, H1975, 72 hrs, read-out: Half inhibitory concentration IC50
Description: as §1, §2

[12] = test system: human non-small cell lung cancer cells H460 (expressing wild-type EGFR gene); assay: Cancer cell growth, Cell Titer-Glo; settings: NCI-H460, H460, 72 hrs, read-out: Half inhibitory concentration IC50
Description: as §1, §2

SMILES	IC50 [1]	IC50 [2]	IC50 [3]	IC50 [4]	IC50 [5]	IC50 [6]	IC50 (mouse pro-B cells BaF3)	IC50 (mouse pro-B cells BaF3; Mus musculus, BaF3, 72 h)	IC50 [7]	IC50 [8]	IC50 (MCL cells REC-1)	IC50 (MDS-RAEB cell line SKM-1)	IC50 [9]	IC50 [10]	IC50 (blood cancer cells K562)	IC50 [11]	IC50 [12]
C=CC(=O)Nc1cc(-n2c(=O)ccc3cnc4ccc(-n5cccn5)cc4c32)ccc1C [Compound 1, N-(2-methyl-5-(2-oxo-9-(1H-pyrazol-1-yl)benzo[H][1,6]naphthyridin-1(2H)-yl)phenyl)acrylamide]	0.018 µM	0.292 µM	1.59 µM	1.6 µM	2.1 µM	2.3 µM	4.28 µM	4.2 µM	1.15 µM	3.4 µM	1.6 µM	1.5 µM	1.5 µM	3.7 µM	> 10 µM	3.81 µM	> 10 µM
CCC(=O)Nc1cc(-n2c(=O)ccc3cnc4ccc(-n5cccn5)cc4c32)ccc1C [Compound 19, N-(2-methyl-5-(2-oxo-9-(1H-pyrazol-1-yl)benzo[H][1,6]naphthyridin-1(2H)-yl)phenyl) propionamide]	> 10 µM	> 10 µM	> 10 µM	> 10 µM	> 10 µM	> 10 µM		> 10 µM	> 10 µM	> 10 µM	> 10 µM	> 10 µM	> 10 µM	> 10 µM	> 10 µM	> 10 µM	> 10 µM
